Test results as given in ChEMBL document CHEMBL4308890, “A carbapenem-based fluorescence assay for the screening of metallo-β-lactamase inhibitors” (Bioorg Med Chem Lett, 2019).

Tests used:
[1] = tested on: Aeromonas hydrophila subsp. hydrophila ATCC 7966; assay: Inhibition of Aeromonas hydrophila ATCC 7966 CphA expressed in Escherichia coli LMG194 at 50 uM using CPC-1 as substrate preincubated for 10 mins followed by substrate addition by fluorescence assay relative to control
[2] = Inhibition of Aeromonas hydrophila ATCC 7966 IMP1 expressed in Escherichia coli LMG194 using FC3 as substrate preincubated for 10 mins followed by substrate addition by fluorescence assay; parameters: species or system Aeromonas hydrophila subsp. hydrophila ATCC 7966
[3] = Inhibition of Aeromonas hydrophila ATCC 7966 CphA expressed in Escherichia coli LMG194 using CPC-1 as substrate preincubated for 10 mins followed by substrate addition by fluorescence assay; parameters: species or system Aeromonas hydrophila subsp. hydrophila ATCC 7966
[4] = Inhibition of Aeromonas hydrophila ATCC 7966 IMP1 expressed in Escherichia coli LMG194 using CPC-1 as substrate preincubated for 10 mins followed by substrate addition by fluorescence assay; parameters: species or system Aeromonas hydrophila subsp. hydrophila ATCC 7966
[5] = Inhibition of Aeromonas hydrophila ATCC 7966 NDM1 expressed in Escherichia coli LMG194 using CPC-1 as substrate preincubated for 10 mins followed by substrate addition by fluorescence assay; parameters: species or system Aeromonas hydrophila subsp. hydrophila ATCC 7966
[6] = Inhibition of Aeromonas hydrophila ATCC 7966 beta-lactamase L1 expressed in Escherichia coli LMG194 using FC3 as substrate preincubated for 10 mins followed by substrate addition by fluorescence assay; parameters: species or system Aeromonas hydrophila subsp. hydrophila ATCC 7966
[7] = Inhibition of Aeromonas hydrophila ATCC 7966 beta-lactamase L1 expressed in Escherichia coli LMG194 using CPC-1 as substrate preincubated for 10 mins followed by substrate addition by fluorescence assay; parameters: species or system Aeromonas hydrophila subsp. hydrophila ATCC 7966
[8] = Inhibition of Aeromonas hydrophila ATCC 7966 NDM1 expressed in Escherichia coli LMG194 using FC3 as substrate preincubated for 10 mins followed by substrate addition by fluorescence assay; parameters: species or system Aeromonas hydrophila subsp. hydrophila ATCC 7966
[9] = Inhibition of Aeromonas hydrophila ATCC 7966 CphA expressed in Escherichia coli LMG194 using imipenem as substrate; parameters: species or system Aeromonas hydrophila subsp. hydrophila ATCC 7966

`O=c1c2ccccc2[se]n1-c1ccccc1` gave an inhibition [1] of under 50%.

`OCC(S)CS` (stereo not given) [DIMERCAPROL] gave an IC50 [2] of 6.2 µM, an IC50 [3] of 7.8 µM and an IC50 [4] of 7.1 µM. The IC50 [5] was 1.5 µM, the IC50 [6] was 2.6 µM and the IC50 [7] was 5 µM. It also gave an IC50 [8] of 1 µM and an inhibition [1] of over 80%.

For `O=C(O)c1cccc(C(=O)O)n1` [DIPICOLINIC ACID], the IC50 [2] was 29.4 µM, the IC50 [3] was 61.5 µM and the IC50 [4] was 23.6 µM. For the same compound, the IC50 [9] was 88.4 µM, the IC50 [5] was 8.8 µM and the IC50 [8] was 6.2 µM.
